Data taken from patent publication US5213797A, “A80407 antibiotics” (Eli Lilly and Company, priority 1990, dated 1993).
Bridge positions count the residues as written; N and C are the ends. Square brackets hold non-standard residues; d marks the D form. Peptide text beside a SMILES is read from it. * marks the point of attachment. Ileψ(thiazoline)Cys = CC[C@H](C)[C@H](N)C1=N[C@H](C(=O)*)CS1; dOrn = NCCC[C@@H](N)C(=O)O

Legend:
[1] = tested on: Kibdelosporangium philippinensis (cultures A80407 and A80407.4); experiment: Resistance to antibiotics of the producing cultures, antibiotic sensitivity discs on seeded ISP No. 2 agar; details: 10 units; both cultures
[2] = tested on: Kibdelosporangium philippinensis (cultures A80407 and A80407.4); experiment: Lysozyme resistance of the producing cultures; format: cell-based; details: both cultures
Description: Methods recommended by Gordon et.al. [R. E. Gordon, D. A. Barnett, J. E. Handerhan, and C. H. Pang, "Nocardia coeliaca, Nocardia autotrophica, and the Nocardin Strain," Int. J. Syst. Bacteriol. 24, (1), 54-63 (1974)] were followed for the majority of physiological tests.

Row | Compound | Resistance to antibiotics [1] | Resistance to lysozyme [2]
1 | CC[C@H](C)[C@H](N)C1=N[C@H](C(=O)N[C@@H](CC(C)C)C(=O)N[C@H](CCC(=O)O)C(=O)N[C@H](C(=O)N[C@H]2CCCCNC(=O)[C@H](CC(N)=O)NC(=O)[C@@H](CC(=O)O)NC(=O)[C@H](Cc3cnc[nH]3)NC(=O)[C@@H](Cc3ccccc3)NC(=O)[C@H]([C@@H](C)CC)NC(=O)[C@@H](CCCN)NC2=O)[C@@H](C)CC)CS1 [bacitracin] ({Ileψ(thiazoline)Cys}-L[dE]IK[dOrn]I[dF]H[dD]N; lactam 4-C) | sensitive | –
2 | lysozyme | – | Neither culture was resistant
